Reference: BigSolDB 2.1

COC1CCC2(CC1)NC(=O)C(c1cc(C)ccc1C)=C2O (stereo not given)
solubility (mole fraction)
Details	288.15 K	293.15 K	298.15 K	303.15 K	308.15 K	313.15 K	318.15 K	323.15 K	328.15 K
in acetonitrile	0.000317	0.000345	0.000375	0.000463	0.00057	0.000681	0.000791	0.000923	0.0011
in ethanol	0.00255	0.00276	0.00302	0.00341	0.00392	0.00447	0.00513	0.00596	0.00681
in methanol	0.00339	0.00379	0.00431	0.00473	0.00528	0.00589	0.00656	0.00735	0.00832
in n-propanol	0.00252	0.00303	0.00348	0.00402	0.00453	0.00518	0.00603	0.00697	0.00799
in water	1.96e-06	3.14e-06	4.08e-06	5.12e-06	6.15e-06	7.28e-06	8.43e-06	9.14e-06	1.05e-05
